# Where two headings read alike, the source gives them in different places.
# Assays:
# [1] = Regional brain tissue binding by equilibrium dialysis, human post-mortem brain homogenate (control and AD donors); type: in vitro ADME; settings: for fu,brain,ROI in CRB of AD patients compared to rat CRB: AD patients versus healthy Sprague-Dawley rats; for fraction unbound at 6 h, 1 µM: human, post-mortem brain tissue homogenate
# [2] = rat, brain homogenate
# [3] = on average; according to prior information; cited from earlier work
# [4] = in vitro; settings: Sprague-Dawley, rat, brain homogenate
# [5] = design: method as in Loryan et al.[23]; settings: Rat, ref Loryan et al.[23], cited from earlier work; for fu,brain,ROI Mean: biological replicates; for fu,brain,ROI Median: technical replicates
# [6] = AD donors, BG, pH 7.4, AD donors, BG, biological replicates, 1 µM, 6 h, 37 °C, read-out: fu,brain,ROI Mean
# [7] = AD donors, BG, pH 7.4, AD donors, BG, technical replicates, 1 µM, 6 h, 37 °C, read-out: fu,brain,ROI Median
# [8] = AD donors, CRB, pH 7.4, AD donors, CRB, biological replicates, 1 µM, 6 h, 37 °C, read-out: fu,brain,ROI Mean
# [9] = AD donors, CRB, pH 7.4, AD donors, CRB, technical replicates, 1 µM, 6 h, 37 °C, read-out: fu,brain,ROI Median
# [10] = AD donors, FrCx, pH 7.4, AD donors, FrCx, biological replicates, 1 µM, 6 h, 37 °C, read-out: fu,brain,ROI Mean
# [11] = AD donors, FrCx, pH 7.4, AD donors, FrCx, technical replicates, 1 µM, 6 h, 37 °C, read-out: fu,brain,ROI Median
# [12] = AD donors, PrCx, pH 7.4, AD donors, PrCx, technical replicates, 1 µM, 6 h, 37 °C, read-out: fu,brain,ROI Median
# [13] = control donors, BG, pH 7.4, Control donors, BG, biological replicates, 1 µM, 6 h, 37 °C, read-out: fu,brain,ROI Mean
# [14] = control donors, BG, pH 7.4, Control donors, BG, technical replicates, 1 µM, 6 h, 37 °C, read-out: fu,brain,ROI Median
# [15] = control donors, CRB, pH 7.4, Control donors, CRB, biological replicates, 1 µM, 6 h, 37 °C, read-out: fu,brain,ROI Mean
# [16] = control donors, CRB, pH 7.4, Control donors, CRB, technical replicates, 1 µM, 6 h, 37 °C, read-out: fu,brain,ROI Median
# [17] = control donors, FrCx, pH 7.4, Control donors, FrCx, biological replicates, 1 µM, 6 h, 37 °C, read-out: fu,brain,ROI Mean
# [18] = control donors, FrCx, pH 7.4, Control donors, FrCx, technical replicates, 1 µM, 6 h, 37 °C, read-out: fu,brain,ROI Median
# [19] = control donors, PrCx, pH 7.4, Control donors, PrCx, biological replicates, 1 µM, 6 h, 37 °C, read-out: fu,brain,ROI Mean
# [20] = control donors, PrCx, pH 7.4, Control donors, PrCx, technical replicates, 1 µM, 6 h, 37 °C, read-out: fu,brain,ROI Median
# [21] = AD group, within-group comparison
# [22] = AD donors, PrCx, pH 7.4, AD donors, PrCx, biological replicates, 1 µM, 6 h, 37 °C, read-out: fu,brain,ROI Mean
"fu,brain,ROI in CRB of AD patients compared to rat CRB [1]","fraction unbound at 6 h, 1 µM [1, 6]","fraction unbound at 6 h, 1 µM [1, 7]","fraction unbound at 6 h, 1 µM [1, 8]","fraction unbound at 6 h, 1 µM [1, 9]","fraction unbound at 6 h, 1 µM [1, 10]","fraction unbound at 6 h, 1 µM [1, 11]","fraction unbound at 6 h, 1 µM [1, 12]","fraction unbound at 6 h, 1 µM [1, 13]","fraction unbound at 6 h, 1 µM [1, 14]","fraction unbound at 6 h, 1 µM [1, 15]","fraction unbound at 6 h, 1 µM [1, 16]","fraction unbound at 6 h, 1 µM [1, 17]","fraction unbound at 6 h, 1 µM [1, 18]","fraction unbound at 6 h, 1 µM [1, 19]","fraction unbound at 6 h, 1 µM [1, 20]","between region comparison of fu,brain,ROI [2]","fraction unbound at 6 h, 1 µM ([4]; pH 7.4, fu,brain,ROI Mean)","fraction unbound at 6 h, 1 µM ([4]; pH 7.4, fu,brain,ROI Median)","ratio of fu,brain,ROI in CRB compared to PrCx [1, 21]",SMILES,other results
twice as high,0.089,0.089,0.149,0.116,0.103,0.095,0.08,0.073,0.071,0.113,0.109,0.088,0.088,0.079,0.083,no differences in binding,0.068,0.065,,"COc1ccc2c(c1)c(CC(=O)O)c(C)n2C(=O)c1ccc(Cl)cc1 [Indomethacin, indomethacin]",plasma protein binding exceeding brain tissue binding [3]: 5 fold
twice as high,0.114,0.111,0.152,0.142,0.114,0.117,0.103,0.092,0.093,0.113,0.116,0.094,0.092,0.088,0.086,no differences in binding,0.076,0.073,≥ 1.5,"CC12CC3CC(C)(C1)CC(N)(C3)C2 [Memantine, memantine]","fold higher fu,brain,ROI in CRB compared to PrCx ([1]; control group, within-group comparison): ≥ 1.3 fold; fraction unbound at 6 h, 1 µM [1, 22]: 0.099"
twice as high,0.249,0.249,0.374,,0.237,0.216,0.224,0.186,0.192,0.217,0.207,0.197,0.198,0.189,0.183,no differences in binding,,,≥ 1.5,"Cc1nc2n(c(=O)c1CCN1CCC(c3noc4cc(F)ccc34)CC1)CCCC2O (stereo not drawn) [Paliperidone, paliperidone]","fu,brain,ROI Median ([1]; AD donors, CRB, technical replicates, 1 µM, 6 h, 37 °C): 0.350; ratio of fu,brain,ROI in CRB compared to BG [1, 21]: 1.4; fold lower BTB in CRB compared to frontal and parietal cortices ([1]; AD patients, average): 1.5 fold; ratio of fu,brain,ROI AD versus control ([1]; CRB, between group comparison): 1.6; regional within-group comparison of fu,brain,ROI ([1]; control group, FrCx, PrCx, BG, CRB): uniform binding; fraction unbound at 6 h, 1 µM [1, 22]: 0.232; fu,brain,ROI Mean ([5]; BG): 0.128; fu,brain,ROI Median ([5]; BG): 0.128; fu,brain,ROI Mean ([5]; CRB): 0.145; fu,brain,ROI Median ([5]; CRB): 0.143; fu,brain,ROI Mean ([5]; FrCx): 0.144; fu,brain,ROI Median ([5]; FrCx): 0.138; fu,brain,ROI Mean ([5]; HIP): 0.157; fu,brain,ROI Median ([5]; HIP): 0.150; fu,brain,ROI Mean ([5]; WB): 0.141; fu,brain,ROI Median ([5]; WB): 0.151"
